Values of other authors in US5358942A, “Inhibition of protein kinase C with Cyclic phosphonate compounds” (Louisiana State University, priority 1993, dated 1994).

System: carnitine palmitoyltransferase (CPT)

inhibition of carnitine palmitoyltransferase (CPT): potently inhibits
SMILES: CCCCCCCCCCCCCCC[C@@]1(O)C[N+](C)(C)C[C@H](CC(=O)O)O1.[Br-] [Hemipalmitoyl carnitinium (HPC), Hemipalmitoyl carnitinium]
